Test results taken from patent publication US20150176022A1, “HERBICIDE-RESISTANT SUNFLOWER PLANTS, POLYNUCLEOTIDES ENCODING HERBICIDE=RESISTANT ACETO HYDROXY ACID SYNTHASE LARGE SUBUNIT PROTEINS, AND METHODS OF USE” (priority 2013, published 2015).
“And” between values parts separate entries of the source, which are not always exact repeats. Equal values may be shown once.

Experiments:
Format in all cases: in vivo, Helianthus annuus
[1] = tested on: sunflower genotypes carrying the A205V mutation event; test: Greenhouse whole-plant imazapir dose response (Example 8), group mean; details: 14 DAT; for biomass, Dif with control (reduction), A205V / plant height, Dif with Control (height reduction), A205V / root dry weight, Dif with control (reduction), A205V: A205V mean; for biomass accumulation (% of untreated), Mean A205V / root dry weight (% of untreated), Mean A205V / plant height (% of untreated), Mean A205V: mean of six A205V genotypes; for Phytotoxicity Index, Mean A205V: mean of three A205V genotypes
Description: (§1) A greenhouse study was conducted to quantify and contrast the imazapir sensitivity of the mutants A122T and A205V in different genetic backgrounds at the whole plant level in sunflower. Seeds of the different sunflower lines that were used in this study were obtained under field conditions.
(§2) Seeds were sown in Petri dishes and, after germination, plantlets were transplanted to pots of 10 cm of diameter in a potting media consisting of equal parts of vermiculite, soil and sand. Plants were grown in a greenhouse under natural light conditions supplemented with 400 W sodium halide lamps to provide a 16 hrs daylength. Day/night temperatures were 25 and 20° C., respectively. At the V2 stage 10 plants of each genotype were randomly assigned to each treatment consisting of […] imazapir doses (0, 40, 80, 160, 240, 320, 400 and 480 g ai/ha), and a zero-time biomass determination. Experiment was arranged as a randomized block design with a full factorial (sunflower line×treatment) arrangement of treatments and 10 replications.
(§3) On the day of herbicide application ten plants of each genotype were cut at the cotyledonal node and dried at 60° C. for 48 hrs zero-time for dried weight determination. […] Height was determined as the distance between the cotyledonal node and the apex of each plant. For root biomass determination, each plant was taken from the pot and the potting media was washed out from the roots. Above ground biomass data from each line were converted to biomass accumulation after application by subtracting the appropriate average zero-time biomass from each sample. Dry biomass data were converted to percentages of the untreated control plants within each line to allow direct comparisons between groups.

[2] = tested on: Sunflower line S4897; test: Greenhouse spray test, injury rating (Example 5); details: Imazapyr 360 gm ai/ha, 14 DAT, scale 0=no injury to 9=dead plant
From the text: (§4) Sunflower lines S4897, Clearfield® sunflower varieties A, B, C and a conventional non-Clearfield variety were sprayed with three rates of imazamox (Raptor™), 100, 200 and 300 gm ai/ha plus 0.5% Sun It II and two rates of imazapyr (Arsenal™) 160 and 360 gm ai/ha plus 0.5% Sun It II when the plants were at the two to three leaf stage. Ratings were taken at 14 days after application (DAT) for injury. Injury was rated on a scale from 0 to 9 where 0=no injury to 9=dead plant. Twelve plants were sprayed per herbicide/rate treatment. Statistical analysis was conducted with STATGRAPHICS Plus 5.0 by using ANOVA and LSD procedures.
(§5) After plants were sprayed, it was realized that a height difference between S4897 and other sunflower varieties would have impacted the actual herbicide dose that was delivered. The spray boom height had been calibrated against S4897 and since the other varieties were taller and closer to the boom they would have received a greater dose of herbicide. Rates were recalibrated for the other varieties to determine the approximate dose they would have received. Assessments were made as presented in Table 2 since it was not possible to make a direct rate comparison due to the effect of the height. For example injury scores were compare for S4897 treated imazamox rate 100 gm ai/ha to the other varieties treated at 75 gm ai/ha. The treatment dose of 300 gm ai/ha for line S4897 was equivalent to the treatment of 200 gm ai/ha for the other varieties, which […].

[3] = tested on: Conventional non-Clearfield sunflower variety; test: Greenhouse spray test, injury rating (Example 5); details: Imazapyr 240 gm ai/ha, 14 DAT, scale 0=no injury to 9=dead plant
From the text: as §4, §5

[4] = tested on: Clearfield-Sunflower variety A; test: Greenhouse spray test, injury rating (Example 5); details: Imazapyr 240 gm ai/ha, 14 DAT, scale 0=no injury to 9=dead plant
From the text: as §4, §5

[5] = tested on: Clearfield-Sunflower variety B; test: Greenhouse spray test, injury rating (Example 5); details: Imazapyr 240 gm ai/ha, 14 DAT, scale 0=no injury to 9=dead plant
From the text: as §4, §5

[6] = tested on: Clearfield-Sunflower variety C; test: Greenhouse spray test, injury rating (Example 5); details: Imazapyr 240 gm ai/ha, 14 DAT, scale 0=no injury to 9=dead plant
From the text: as §4, §5

[7] = tested on: A122T versus A205V sunflower genotypes; test: Greenhouse whole-plant imazapir dose response (Example 8), difference between mutants; details: difference of group means, 14 DAT
Description: as §1, §2, §3

Compound: CC(C)C1(C)N=C(c2ncccc2C(=O)O)NC1=O (stereo not shown) [imazapir, imazapyr]
- biomass, Dif with control (reduction), A205V ([1]; 0.5× (40 g ai/ha)): 5.5%
- plant height, Dif with Control (height reduction), A205V ([1]; 0.5× (40 g ai/ha)): 5.6%
- root dry weight, Dif with control (reduction), A205V ([1]; 0.5× (40 g ai/ha)): 12.8%
- biomass, Dif with control (reduction), A205V ([1]; 1× (80 g ai/ha)): 17.8%
- plant height, Dif with Control (height reduction), A205V ([1]; 1× (80 g ai/ha)): 10.8%
- root dry weight, Dif with control (reduction), A205V ([1]; 1× (80 g ai/ha)): 29.2%
- biomass, Dif with control (reduction), A205V ([1]; 2× (160 g ai/ha)): 38.4%
- plant height, Dif with Control (height reduction), A205V ([1]; 2× (160 g ai/ha)): 30.8%
- root dry weight, Dif with control (reduction), A205V ([1]; 2× (160 g ai/ha)): 49.4%
- biomass, Dif with control (reduction), A205V ([1]; 3× (240 g ai/ha)): 52.4%
- plant height, Dif with Control (height reduction), A205V ([1]; 3× (240 g ai/ha)): 49.6%
- root dry weight, Dif with control (reduction), A205V ([1]; 3× (240 g ai/ha)): 60.8%
- biomass, Dif with control (reduction), A205V ([1]; 4× (320 g ai/ha)): 64.6%
- plant height, Dif with Control (height reduction), A205V ([1]; 4× (320 g ai/ha)): 66.3%
- root dry weight, Dif with control (reduction), A205V ([1]; 4× (320 g ai/ha)): 68.9%
- biomass, Dif with control (reduction), A205V ([1]; 5× (400 g ai/ha)): 67.6%
- plant height, Dif with Control (height reduction), A205V ([1]; 5× (400 g ai/ha)): 68.0%
- root dry weight, Dif with control (reduction), A205V ([1]; 5× (400 g ai/ha)): 69.3%
- biomass, Dif with control (reduction), A205V ([1]; 6× (480 g ai/ha)): 70.0%
- plant height, Dif with Control (height reduction), A205V ([1]; 6× (480 g ai/ha)): 68.9% and 69.8%
- root dry weight, Dif with control (reduction), A205V ([1]; 6× (480 g ai/ha)): 75.6%
- biomass accumulation (% of untreated), Mean A205V ([1]; 0.5× (40 g ai/ha)): 94.5%
- root dry weight (% of untreated), Mean A205V ([1]; 0.5× (40 g ai/ha)): 87.2%
- biomass accumulation (% of untreated), Mean A205V ([1]; 1× (80 g ai/ha)): 82.2%
- root dry weight (% of untreated), Mean A205V ([1]; 1× (80 g ai/ha)): 70.8%
- biomass accumulation (% of untreated), Mean A205V ([1]; 2× (160 g ai/ha)): 61.6%
- plant height (% of untreated), Mean A205V ([1]; 2× (160 g ai/ha)): 69.2%
- root dry weight (% of untreated), Mean A205V ([1]; 2× (160 g ai/ha)): 50.6%
- biomass accumulation (% of untreated), Mean A205V ([1]; 3× (240 g ai/ha)): 47.6%
- plant height (% of untreated), Mean A205V ([1]; 3× (240 g ai/ha)): 50.4%
- root dry weight (% of untreated), Mean A205V ([1]; 3× (240 g ai/ha)): 39.2%
- biomass accumulation (% of untreated), Mean A205V ([1]; 4× (320 g ai/ha)): 35.4%
- plant height (% of untreated), Mean A205V ([1]; 4× (320 g ai/ha)): 33.7%
- root dry weight (% of untreated), Mean A205V ([1]; 4× (320 g ai/ha)): 31.1%
- biomass accumulation (% of untreated), Mean A205V ([1]; 5× (400 g ai/ha)): 32.4%
- plant height (% of untreated), Mean A205V ([1]; 5× (400 g ai/ha)): 32.0%
- root dry weight (% of untreated), Mean A205V ([1]; 5× (400 g ai/ha)): 30.7%
- biomass accumulation (% of untreated), Mean A205V ([1]; 6× (480 g ai/ha)): 30.0%
- plant height (% of untreated), Mean A205V ([1]; 6× (480 g ai/ha)): 30.2%
- root dry weight (% of untreated), Mean A205V ([1]; 6× (480 g ai/ha)): 24.4%
- Phytotoxicity Index, Mean A205V ([1]; 2× (160 g ai/ha)): 2.2
- Phytotoxicity Index, Mean A205V ([1]; 3× (240 g ai/ha)): 5.1
- Phytotoxicity Index, Mean A205V ([1]; 4× (320 g ai/ha)): 7.4
- Phytotoxicity Index, Mean A205V ([1]; 5× (400 g ai/ha)): 8.2
- Phytotoxicity Index, Mean A205V ([1]; 6× (480 g ai/ha)): 8.2
- Injury ([2]; listed as Imazapyr): 0.8 a
- Injury ([2]; listed as imazapyr): very little injury
- Injury [3]: 8.2 days
- Injury [4]: 5.0 c
- Injury [5]: 4.3 b
- Injury [6]: 4.9 c
- Phytotoxicity Index, Dif A205V-A122T ([7]; 0.5× (40 g ai/ha)): −0.29
- biomass, Dif A122T-A205V ([7]; 0.5× (40 g ai/ha)): 4.3%
- plant height, Dif A122T-A205V ([7]; 0.5× (40 g ai/ha)): 4.9%
- root dry weight, Dif A122T-A205V ([7]; 0.5× (40 g ai/ha)): 12.7%
- Phytotoxicity Index, Dif A205V-A122T ([7]; 1× (80 g ai/ha)): −0.29
- biomass, Dif A122T-A205V ([7]; 1× (80 g ai/ha)): 14.5%
- plant height, Dif A122T-A205V ([7]; 1× (80 g ai/ha)): 9.4%
- root dry weight, Dif A122T-A205V ([7]; 1× (80 g ai/ha)): 26.7%
- Phytotoxicity Index, Dif A205V-A122T ([7]; 2× (160 g ai/ha)): 1.87
- biomass, Dif A122T-A205V ([7]; 2× (160 g ai/ha)): 33.2%
- plant height, Dif A122T-A205V ([7]; 2× (160 g ai/ha)): 28.0%
- root dry weight, Dif A122T-A205V ([7]; 2× (160 g ai/ha)): 43.6%
- Phytotoxicity Index, Dif A205V-A122T ([7]; 3× (240 g ai/ha)): 4.81
- biomass, Dif A122T-A205V ([7]; 3× (240 g ai/ha)): 45.3%
- plant height, Dif A122T-A205V ([7]; 3× (240 g ai/ha)): 45.3%
- root dry weight, Dif A122T-A205V ([7]; 3× (240 g ai/ha)): 50.2%
- Phytotoxicity Index, Dif A205V-A122T ([7]; 4× (320 g ai/ha)): 6.92
- biomass, Dif A122T-A205V ([7]; 4× (320 g ai/ha)): 52.4%
- plant height, Dif A122T-A205V ([7]; 4× (320 g ai/ha)): 59.9%
- root dry weight, Dif A122T-A205V ([7]; 4× (320 g ai/ha)): 50.3%
- Phytotoxicity Index, Dif A205V-A122T ([7]; 5× (400 g ai/ha)): 7.38
- biomass, Dif A122T-A205V ([7]; 5× (400 g ai/ha)): 46.9%
- plant height, Dif A122T-A205V ([7]; 5× (400 g ai/ha)): 57.8%
- root dry weight, Dif A122T-A205V ([7]; 5× (400 g ai/ha)): 47.9%
- Phytotoxicity Index, Dif A205V-A122T ([7]; 6× (480 g ai/ha)): 7.03
- biomass, Dif A122T-A205V ([7]; 6× (480 g ai/ha)): 44.6%
- plant height, Dif A122T-A205V ([7]; 6× (480 g ai/ha)): 54.0%
- root dry weight, Dif A122T-A205V ([7]; 6× (480 g ai/ha)): 37.3%
